Assay results from ChEMBL document CHEMBL5380808, “Design, Synthesis, and Biological Activity of Marinacarboline Analogues as STAT3 Pathway Inhibitors for Docetaxel-Resistant Triple-Negative Breast Cancer” (J Med Chem, 2023).
Activity calls are given as the source filed them. No cut-off for these calls is given here.

Assays:
MDA-MB-231 [1] = experiment: Antiproliferative activity against human MDA-MB-231 cells assessed as reduction in cell viability incubated for 72 hrs by sulforhodamine B assay; type: functional, cell-based; conditions: MDA-MB-231, 72 h
[2] = biological target: Signal transducer and activator of transcription 3 (Homo sapiens) (UniProt P40763); experiment: Inhibition of STAT3 phosphorylation at Y705 residue in docetaxel-resistant human MDA-MB-231-DTR cells assessed as decrease in phosphorylated STAT3 level at 2.5 to 10 uM incubated for 24 hrs by Western blot analysis; type: cell-based; conditions: dose 2.5-10 µM
[3] = Synergistic antiproliferative activity against docetaxel-resistant human MDA-MB-231-DTR cells assessed as combination index at 2 uM incubated for 72 hrs in presence of 1 uM of docetaxel by Chou-Talalay method; type: functional
[4] = Synergistic antiproliferative activity against docetaxel-resistant human MDA-MB-231-DTR cells assessed as combination index at 2 uM incubated for 72 hrs in presence of 2 uM of docetaxel by Chou-Talalay method; type: functional
[5] = Synergistic antiproliferative activity against docetaxel-resistant human MDA-MB-231-DTR cells assessed as combination index at 8 uM incubated for 72 hrs in presence of 4 uM of docetaxel by Chou-Talalay method; type: functional
[6] = Induction of cell cycle arrest in docetaxel-resistant human MDA-MB-231-DTR cells assessed as accumulation at subG1 phase at 2.5 uM incubated for 36 hrs by PI staining based flow cytometry analysis (reference value: 0.52%); type: functional
[7] = Induction of cell cycle arrest in docetaxel-resistant human MDA-MB-231-DTR cells assessed as accumulation at G0/G1 phase at 5 uM incubated for 36 hrs by PI staining based flow cytometry analysis (reference value: 74.77%); type: functional
[8] = Induction of cell cycle arrest in docetaxel-resistant human MDA-MB-231-DTR cells assessed as accumulation at S phase at 2.5 uM incubated for 36 hrs by PI staining based flow cytometry analysis (reference value: 11.57%); type: functional
MDA-MB-231 [9] = experiment: Induction of cell cycle arrest at G2/M phase in docetaxel-resistant human MDA-MB-231-DTR cells assessed as upregulation of Chk1 phosphorylation at S345 at 2.5 to 10 uM incubated for 36 hrs by Western blot analysis; type: functional, cell-based; conditions: dose 2.5-10 µM
MDA-MB-231 [10] = experiment: Induction of cell cycle arrest at G2/M phase in docetaxel-resistant human MDA-MB-231-DTR cells assessed as downregulation of c-Myc expression level at 2.5 to 10 uM incubated for 36 hrs by Western blot analysis; type: functional, cell-based; conditions: dose 2.5-10 µM
[11] = Induction of cell cycle arrest in docetaxel-resistant human MDA-MB-231-DTR cells assessed as accumulation at G0/G1 phase at 5 uM incubated for 12 hrs by PI staining based flow cytometry analysis (reference value: 75.49%); type: functional
[12] = Induction of cell cycle arrest in docetaxel-resistant human MDA-MB-231-DTR cells assessed as accumulation at G0/G1 phase at 5 uM incubated for 36 hrs by PI staining based flow cytometry analysis (reference value: 75.49%); type: functional
[13] = Induction of cell cycle arrest in docetaxel-resistant human MDA-MB-231-DTR cells assessed as accumulation at G0/G1 phase at 5 uM incubated for 48 hrs by PI staining based flow cytometry analysis (reference value: 75.49%); type: functional
[14] = Induction of cell cycle arrest in docetaxel-resistant human MDA-MB-231-DTR cells assessed as accumulation at S phase at 5 uM incubated for 24 hrs by PI staining based flow cytometry analysis (reference value: 10.56%); type: functional
[15] = Induction of cell cycle arrest in docetaxel-resistant human MDA-MB-231-DTR cells assessed as accumulation at S phase at 5 uM incubated for 36 hrs by PI staining based flow cytometry analysis (reference value: 10.56%); type: functional
[16] = Induction of apoptosis in docetaxel-resistant human MDA-MB-231-DTR cells assessed as increase in total cell death at 10 uM incubated for 48 hrs by Annexin V-FITC and PI staining based flow cytometry; type: functional
MDA-MB-231 [17] = experiment: Induction of apoptosis in docetaxel-resistant human MDA-MB-231-DTR cells assessed as upregulation of cleaved-caspase-9 expression level at 2.5 to 10 uM incubated for 48 hrs by Western blot analysis; type: functional, cell-based; conditions: dose 2.5-10 µM
MDA-MB-231 [18] = experiment: Induction of apoptosis in docetaxel-resistant human MDA-MB-231-DTR cells assessed as upregulation of cleaved-caspase-3 expression level at 2.5 to 10 uM incubated for 48 hrs by Western blot analysis; type: functional, cell-based; conditions: dose 2.5-10 µM
MDA-MB-231 [19] = experiment: Induction of apoptosis in docetaxel-resistant human MDA-MB-231-DTR cells assessed as downregulation of survivin expression level at 2.5 to 10 uM incubated for 48 hrs by Western blot analysis; type: functional, cell-based; conditions: dose 2.5-10 µM
MDA-MB-231 [20] = experiment: Inhibition of cell migration in docetaxel-resistant human MDA-MB-231-DTR cells at 3 to 6 uM incubated for 24 hrs by microscopy based wound healing assay; type: functional; conditions: dose 3-6 µM
MDA-MB-231 [21] = experiment: Inhibition of cell migration in docetaxel-resistant human MDA-MB-231-DTR cells assessed as downregulation of N-cadherin expression level at 3 to 6 uM incubated for 24 hrs by Western blot analysis; type: functional, cell-based; conditions: dose 3-6 µM
MDA-MB-231 [22] = experiment: Inhibition of cell migration in docetaxel-resistant human MDA-MB-231-DTR cells assessed as upregulation of E-cadherin expression level at 3 to 6 uM incubated for 24 hrs by Western blot analysis; type: functional, cell-based; conditions: dose 3-6 µM
MDA-MB-231 [23] = experiment: Antitumor activity against docetaxel-resistant human MDA-MB-231-DTR cells xenografted in BALB/c mouse assessed as tumor growth inhibition at 10 mg/kg, ip daily for 12 days; type: functional, organism-based; conditions: time 12.0 day
MDA-MB-231 [24] = experiment: Antitumor activity against docetaxel-resistant human MDA-MB-231-DTR cells xenografted in BALB/c mouse assessed as reduction in tumor volume at 10 mg/kg, ip daily for 12 days in presence of docetaxel; type: functional, organism-based; conditions: time 12.0 day
MDA-MB-231 [25] = experiment: Antitumor activity against docetaxel-resistant human MDA-MB-231-DTR cells xenografted in BALB/c mouse assessed as reduction in tumor weight at 10 mg/kg, ip daily for 12 days in presence of docetaxel; type: functional, organism-based; conditions: time 12.0 day
MDA-MB-231 [26] = experiment: Antitumor activity against docetaxel-resistant human MDA-MB-231-DTR cells xenografted in BALB/c mouse assessed as downregulation of phosphorylated STAT3 level in tumor tissue at 10 mg/kg, ip daily for 12 days by Immunohistochemical analysis; type: functional, organism-based; conditions: time 12.0 day
MDA-MB-231 [27] = experiment: Antitumor activity against docetaxel-resistant human MDA-MB-231-DTR cells xenografted in BALB/c mouse assessed as downregulation of vimentin level in tumor tissue at 10 mg/kg, ip daily for 12 days by Immunohistochemical analysis; type: functional, organism-based; conditions: time 12.0 day
MDA-MB-231 [28] = experiment: Antitumor activity against docetaxel-resistant human MDA-MB-231-DTR cells xenografted in BALB/c mouse assessed as upregulation of E-cadherin level in tumor tissue at 10 mg/kg, ip daily for 12 days by Immunohistochemical analysis; type: functional, organism-based; conditions: time 12.0 day
[29] = Antiproliferative activity against docetaxel-resistant human MDA-MB-231-DTR cells assessed as reduction in cell viability incubated for 72 hrs by MTT assay; type: functional, cell-based; conditions: MDA-MB-231, 72 h

Sequence of Signal transducer and activator of transcription 3 (Homo sapiens) (P40763 whole entry): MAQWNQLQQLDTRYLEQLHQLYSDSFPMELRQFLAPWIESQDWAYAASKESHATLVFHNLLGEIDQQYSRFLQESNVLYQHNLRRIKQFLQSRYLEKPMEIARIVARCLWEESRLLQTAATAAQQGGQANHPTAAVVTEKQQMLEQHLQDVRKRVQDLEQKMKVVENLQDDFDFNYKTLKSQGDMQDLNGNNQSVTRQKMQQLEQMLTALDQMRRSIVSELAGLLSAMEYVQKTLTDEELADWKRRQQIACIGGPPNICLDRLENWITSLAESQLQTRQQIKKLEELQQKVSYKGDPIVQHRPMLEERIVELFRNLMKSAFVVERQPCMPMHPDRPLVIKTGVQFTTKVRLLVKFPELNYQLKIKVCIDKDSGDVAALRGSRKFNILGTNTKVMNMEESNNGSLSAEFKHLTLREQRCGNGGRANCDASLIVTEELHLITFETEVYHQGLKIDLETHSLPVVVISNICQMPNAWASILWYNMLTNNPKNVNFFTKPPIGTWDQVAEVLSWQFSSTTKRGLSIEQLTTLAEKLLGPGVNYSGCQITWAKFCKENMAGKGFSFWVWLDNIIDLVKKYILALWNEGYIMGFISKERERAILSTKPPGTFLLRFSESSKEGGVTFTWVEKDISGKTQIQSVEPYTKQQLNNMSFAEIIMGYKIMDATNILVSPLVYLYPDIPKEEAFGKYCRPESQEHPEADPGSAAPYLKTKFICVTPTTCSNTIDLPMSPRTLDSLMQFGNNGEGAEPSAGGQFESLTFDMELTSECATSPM

O=C(NCCc1c[nH]c2ccccc12)c1cc2c([nH]c3ccccc32)c(C(=O)c2ccc(Br)cc2)n1
IC50 (MDA-MB-231 [1]): 3.11 µM
inhibition [2]: Active
CI [3]: 0.26
CI [4]: 0.23
CI [5]: 0.32
Activity [6]: 0.57%
Activity [7]: 51.37%
Activity [8]: 12.13%
Activity (MDA-MB-231 [9]): Active
Activity (MDA-MB-231 [10]): Active
Activity [11]: 88.84%
Activity [12]: 55.56%
Activity [13]: 48.08%
Activity [14]: 18.28%
Activity [15]: 14.21%
Activity [16]: 61.85%
Activity (MDA-MB-231 [17]): Active
Activity (MDA-MB-231 [18]): Active
Activity (MDA-MB-231 [19]): Active
inhibition (MDA-MB-231 [20]): Dose-Dependent Effect
inhibition (MDA-MB-231 [21]): Active
inhibition (MDA-MB-231 [22]): Active
Activity (MDA-MB-231 [23]): Active
Activity (MDA-MB-231 [24]): Active
Activity (MDA-MB-231 [25]): Active
Activity (MDA-MB-231 [26]): Active
Activity (MDA-MB-231 [27]): Active
Activity (MDA-MB-231 [28]): Active
IC50 [29]: 3.24 µM
